Data published in article PMC12930396, “Positive modulators of N-methyl-D-aspartate receptor: structure–activity relationship study on steroidal C-17 and C-20 oxime ethers” (RSC Advances, 2026).
“Also recorded” adds a separate entry of the source.

Key:
GluN1/GluN2B receptors [1] = conditions: cited from earlier work; for EC50: read-out: EC50, potentiation of GluN1/GluN2B receptor responses
GluN1/GluN2B receptors [2] = molecular target: T1, GluN1/GluN2B receptors (Rattus norvegicus, UniProt P35439+Q00960); test: Patch-clamp: modulation of glutamate-induced currents of recombinant GluN1/GluN2B receptors expressed in HEK293 cells; type: cell-based; conditions: for h ± SEM (apparent Hill coefficient): concentration-response fit; for h ± SEM (apparent Hill coefficient) / EC50 / Emax: mean ± SEM; for EC50: half-maximal potentiation of currents evoked by 1 µM glutamate; for EC50 / Emax / inhibition at 3 µM: HEK293; for Emax: maximal potentiation of currents evoked by 1 µM glutamate and 30 µM glycine; for Modulatory profile at NMDARs: GluN1/GluN2B in HEK293; for inhibition at 3 µM: at 3 µM compound, read-out: NAM effect (degree of inhibition); for inhibition at 3 µM / PAM effect (degree of potentiation): 1 µM glutamate
T1 construct: expressed in transfected cells; host or cells: HEK293 cells (ATCC No. CRL-1573)
T1 sequence (Q00960 27-1482, other chains not shown): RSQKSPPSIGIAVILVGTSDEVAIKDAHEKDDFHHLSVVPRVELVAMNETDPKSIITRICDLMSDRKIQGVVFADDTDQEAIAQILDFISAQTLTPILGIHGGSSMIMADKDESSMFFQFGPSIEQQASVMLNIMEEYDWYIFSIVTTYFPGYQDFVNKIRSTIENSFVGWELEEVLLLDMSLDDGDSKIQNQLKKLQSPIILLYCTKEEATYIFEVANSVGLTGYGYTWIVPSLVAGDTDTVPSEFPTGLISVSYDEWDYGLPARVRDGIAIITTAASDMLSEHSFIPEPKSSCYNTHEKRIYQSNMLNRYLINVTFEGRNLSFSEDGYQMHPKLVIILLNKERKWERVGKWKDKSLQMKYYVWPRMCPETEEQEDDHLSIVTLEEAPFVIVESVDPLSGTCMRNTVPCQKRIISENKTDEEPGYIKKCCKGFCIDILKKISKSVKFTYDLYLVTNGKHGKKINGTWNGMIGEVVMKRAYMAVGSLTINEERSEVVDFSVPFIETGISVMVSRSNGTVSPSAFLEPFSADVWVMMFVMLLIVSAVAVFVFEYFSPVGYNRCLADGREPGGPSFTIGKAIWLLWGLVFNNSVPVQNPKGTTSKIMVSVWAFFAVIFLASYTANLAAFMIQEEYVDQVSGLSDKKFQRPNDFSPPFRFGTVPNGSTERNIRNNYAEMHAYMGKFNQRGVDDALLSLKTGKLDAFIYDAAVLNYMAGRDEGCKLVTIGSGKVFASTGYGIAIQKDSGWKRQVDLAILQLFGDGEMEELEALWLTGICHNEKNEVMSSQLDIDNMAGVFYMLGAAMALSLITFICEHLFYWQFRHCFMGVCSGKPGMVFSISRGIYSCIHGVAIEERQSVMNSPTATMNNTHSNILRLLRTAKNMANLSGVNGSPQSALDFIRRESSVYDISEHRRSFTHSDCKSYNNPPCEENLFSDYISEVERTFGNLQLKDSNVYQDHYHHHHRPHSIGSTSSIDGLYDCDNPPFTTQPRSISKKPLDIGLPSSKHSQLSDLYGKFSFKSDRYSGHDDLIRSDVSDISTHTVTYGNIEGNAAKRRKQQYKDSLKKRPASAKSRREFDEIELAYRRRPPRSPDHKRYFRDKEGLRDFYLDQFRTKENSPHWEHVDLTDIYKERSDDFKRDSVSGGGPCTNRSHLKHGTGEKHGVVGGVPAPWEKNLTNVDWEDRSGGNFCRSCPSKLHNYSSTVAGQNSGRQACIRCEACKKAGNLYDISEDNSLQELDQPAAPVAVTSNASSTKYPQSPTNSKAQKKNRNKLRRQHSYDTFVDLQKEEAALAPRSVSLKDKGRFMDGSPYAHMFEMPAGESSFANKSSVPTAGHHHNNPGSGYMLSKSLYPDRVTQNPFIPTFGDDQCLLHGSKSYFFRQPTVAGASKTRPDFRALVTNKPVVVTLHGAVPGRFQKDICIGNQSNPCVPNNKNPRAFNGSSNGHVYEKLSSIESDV
Protocol: To investigate the effect of compounds 11–23 on the activity of NMDARs, electrophysiological measurements were performed on HEK293 cells that were co-transfected with cDNAs containing genes encoding for the rat GluN1-1a and GluN2B subunits. The degree of modulation (E; potentiation/inhibition) for the newly synthesized compounds was determined using the following formula: [drawing 1] where Ie is the value of the current amplitude during glutamate and compound coapplication, and Ia is the current amplitude value for glutamate application. […] The results are presented as mean ± standard error of the mean (SEM), with n equal to the number of independent measurements. One-way analysis of variance (ANOVA) was used for multiple comparisons (unless otherwise stated, a value of P ≤ 0.05 was used for the determination of significance).
We have evaluated the relationship between oxime derivatives 11–23 and their modulatory effect on recombinant GluN1/GluN2B receptors. Due to the […] effect of neurosteroid-based PAMs at NMDARs[20,44]
HEK293 cells (American Type Culture Collection, ATCC No. CRL-1573, Rockville, MD, USA) were cultured in Opti-MEM I (Invitrogen, Carlsbad, CA, USA) supplemented with 5% fetal bovine serum (FBS; PAN Biotech, Aidenbach, Germany) at 37 °C in 5% CO2. 24 h before transfection, HEK293 cells were plated in 24-well plates at a density of 2 × 10^5 cells per well. The next day, the cells were transfected with cDNA encoding rat GluN1-1a (GluN1; GenBank accession number U08261)[56] and GluN2B (GenBank accession number M91562)[57] subunits (in the pCI-neo expression vector), along with green fluorescent protein (GFP; in the pQBI 25 vector, Takara, Tokyo, Japan). Briefly, equal amounts (200 ng) of cDNAs encoding GluN1-1a, GluN2B, and GFP were mixed with 0.6 µl of Matra-A reagent (IBA, Gottingen, Germany) in 50 µL of Opti-MEM I and added to confluent HEK293 cells cultured in 24-well plates. After trypsinization, the cells were resuspended in Opti-MEM I containing 1% FBS, supplemented with 20 mM MgCl2, 1 mM D,L-2-amino-5-phosphonovaleric acid, 3 mM kynurenic acid, and 1 µM ketamine, and plated on 30 mm glass coverslips coated with collagen and poly-L-lysine. Transfected cells were identified by GFP epifluorescence. Electrophysiology experiments were performed 24–48 h after transfection.
Whole-cell current recordings, voltage-clamped at a holding potential of −60 mV, were performed at room temperature using a patch-clamp amplifier (Axopatch 200B; Molecular Devices, Sunnyvale, CA, USA) after capacitance and series resistance (<10 MΩ) compensation (80–90%). NMDAR current responses were low-pass filtered at 2 kHz, digitally sampled at 5 kHz, and analysed using pClamp software (version 10.6; Molecular Devices). Patch pipettes (3–5 MΩ), pulled from borosilicate glass, were filled with an intracellular solution (ICS) containing (in mM): 15 CsCl, 10 BAPTA, 3 MgCl2, 1 CaCl2, 120 gluconic acid, 10 HEPES, and 2 ATP-Mg salt (pH adjusted to 7.2 with CsOH). The extracellular solution (ECS) contained (in mM): 160 NaCl, 2.5 KCl, 0.2 EDTA, 10 glucose, 10 HEPES, and 0.7 CaCl2 (pH adjusted to 7.3 with NaOH). NMDAR responses were induced by 1 µM glutamate and 30 µM glycine. 1% DMSO was present in all control and testing solutions. Solution applications were performed using a microprocessor-controlled multibarrel fast-perfusion system with a solution exchange rate around the cells of ∼10 ms.[58]

in vitro [3] = conditions: pH 7.4; for PAMPA permeability Retention (mass retention): 5 h, 100 µM; for Papp at 5 h, 100 µM: PAMPA
Protocol: Permeability was quantified using permeability coefficients (Pe) and mass retention, the latter representing the proportion of compound retained in the membrane.
Permeation experiments were conducted in polystyrene 96-well filter plates with PVDF membrane pre-coated with structured layers of phospholipids (Corning Gentest™) according to the manufacturer's instructions. Briefly, the plate was warmed to room temperature, and meanwhile, the solutions of the compounds were diluted from 10 mM DMSO stocks to TRIS–HCl buffer pH 7.4 to reach a 100 µM final concentration. The DMSO concentration in the samples was 1%. Then, 300 µL of these solutions were transferred into the donor (receiver) plate wells, and 200 µL of the (TRIS) buffer was added to the acceptor (filter) plate wells. The filter plate and receiver plate were assembled and incubated for 5 h on an orbital shaker (300 rpm). After this, the concentration of the tested substances in both the donor and acceptor compartments was determined with use of LC/MS. Liquid chromatography was performed using an ExionLC AD pump and autosampler from Sciex (Framingham, MA, USA). […] The mobile phase flow rate was 300 µL min^−1. The column Synergi Fusion-RP from Phenomenex (Torrance, CA, USA) was used and was kept at 40 °C during the analysis.

in vitro [4] = conditions: pH 7.4; for half-life at 10 µM: rat, microsomes; for Metabolic stability in rat liver microsomes: 1 h, 10 µM
Protocol: The reactions were terminated by the addition of four volumes of ice-cold methanol, mixed vigorously, and left at −20 °C for 1h. After that, the samples were centrifuged and the supernatants were analysed by means of ECHO-MS® System (Sciex, Framingham, MA, USA). Zero time points were prepared by adding ice-cold methanol to the mixture of the compound with cofactors before the addition of microsomes. […] Intrinsic clearance (CLint) was calculated using the following formula: [drawing 4] where V is the incubation volume per milligram of microsomal protein (µL mg^−1) and t1/2 is the microsomal half-life.

CC[C@@H](C)[C@H]1CCC2C3CC[C@@H]4C[C@H](OS(=O)(=O)O)CC[C@]4(C)C3CC[C@@]21C (stereo partly drawn) [Compound 1]
IC50 (GluN1/GluN2B receptors [1]; read-out: IC50, inhibition of currents of GluN1/GluN2B receptors): 0.09 µM

C[C@@]12CCCC1C1CC[C@@H]3C[C@H](OC(=O)CCC(=O)O)CC[C@]3(C)C1CC2 (stereo partly drawn) [Compound 2]
Emax, potentiation of GluN1/GluN2B receptor responses (GluN1/GluN2B receptors [1]): 452%
EC50 (GluN1/GluN2B receptors [1]): 7.4 µM

C[C@]12CC[C@H](OC(=O)CCCC(=O)O)CC1=CCC1C2CC[C@]2(C)C(=O)CCC12 (stereo partly drawn) [Compound 5]
Emax, potentiation of GluN1/GluN2B receptor responses (GluN1/GluN2B receptors [1]): 154%
EC50 (GluN1/GluN2B receptors [1]): 151 µM

C[C@]12CC[C@H](OC(=O)CCCCC(=O)O)CC1=CCC1C2CC[C@]2(C)C(=O)CCC12 (stereo partly drawn) [Compound 6]
Emax, potentiation of GluN1/GluN2B receptor responses (GluN1/GluN2B receptors [1]): 180%
EC50 (GluN1/GluN2B receptors [1]): 108 µM

C[C@]12CC[C@H](OC(=O)CCCCCC(=O)O)CC1=CCC1C2CC[C@]2(C)C(=O)CCC12 (stereo partly drawn) [Compound 7]
Emax, potentiation of GluN1/GluN2B receptor responses (GluN1/GluN2B receptors [1]): 187%
EC50 (GluN1/GluN2B receptors [1]): 82 µM

C[C@]12CC[C@H](OC(=O)CCCCCCC(=O)O)CC1=CCC1C2CC[C@]2(C)C(=O)CCC12 (stereo partly drawn) [Compound 8]
Emax, potentiation of GluN1/GluN2B receptor responses (GluN1/GluN2B receptors [1]): 189%
EC50 (GluN1/GluN2B receptors [1]): 49 µM

C[C@]12CC[C@H](OC(=O)CCCCCCCC(=O)O)CC1=CCC1C2CC[C@]2(C)C(=O)CCC12 (stereo partly drawn) [Compound 9]
Emax, potentiation of GluN1/GluN2B receptor responses (GluN1/GluN2B receptors [1]): 226%
EC50 (GluN1/GluN2B receptors [1]): 32 µM

C[C@]12CC[C@H](OC(=O)CCCCCCCCC(=O)O)CC1=CCC1C2CC[C@]2(C)C(=O)CCC12 (stereo partly drawn) [Compound 10]
Emax, potentiation of GluN1/GluN2B receptor responses (GluN1/GluN2B receptors [1]): 165%
EC50 (GluN1/GluN2B receptors [1]): 16 µM

C/C(=N\OCCN1CCOCC1)[C@H]1CCC2C3CC=C4C[C@@H](OC(=O)CCCC(=O)O)CC[C@]4(C)C3CC[C@@]21C (stereo partly drawn) [Compound 13, 20-Oxo-pregn-5-en-3β-yl hemiglutarate O-(3-morpholinoethyl)oxime]
h ± SEM (apparent Hill coefficient) (GluN1/GluN2B receptors [2]): 2.8 ± 0.2
EC50 (GluN1/GluN2B receptors [2]): 34.7 ± 4.2 µM
Emax (GluN1/GluN2B receptors [2]): 111 ± 11%
PAMPA permeability Retention (mass retention) (in vitro [3]): 95%
half-life at 10 µM (in vitro [4]): > 1 h

CO/N=C(\C)[C@H]1CCC2C3CC=C4C[C@@H](OC(=O)CCCC(=O)O)CC[C@]4(C)C3CC[C@@]21C (stereo partly drawn) [Compound 17, 20-Oxo-pregn-5-en-3β-yl hemiglutarate O-methyloxime]
Potency relative to PES (GluN1/GluN2B receptors [2]; EC50 compared with PES): over 3.5 fold
h ± SEM (apparent Hill coefficient) (GluN1/GluN2B receptors [2]): 1.6 ± 0.1
EC50 (GluN1/GluN2B receptors [2]): 6.1 ± 0.7 µM
Emax (GluN1/GluN2B receptors [2]): 503 ± 85%
PAMPA permeability Retention (mass retention) (in vitro [3]): 95%
Papp at 5 h, 100 µM (in vitro [3]): 5.5 ×10⁻⁶ cm/s
half-life at 10 µM (in vitro [4]): > 1 h

CCCO/N=C(\C)[C@H]1CCC2C3CC=C4C[C@@H](OC(=O)CCCC(=O)O)CC[C@]4(C)C3CC[C@@]21C (stereo partly drawn) [Compound 18, 20-Oxo-pregn-5-en-3β-yl hemiglutarate O-propyloxime]
Modulatory profile at NMDARs (GluN1/GluN2B receptors [2]): not identified as PAMs; also recorded: complex, concentration-dependent activity profile
inhibition at 3 µM (GluN1/GluN2B receptors [2]): 7%
PAM effect (degree of potentiation) (GluN1/GluN2B receptors [2]; at 10 µM compound): 75 ± 21%
PAM effect (degree of potentiation) (GluN1/GluN2B receptors [2]; at 30 µM compound): 108 ± 17%
PAMPA permeability Retention (mass retention) (in vitro [3]): 100%
half-life at 10 µM (in vitro [4]): > 1 h

C/C(=N\OC(C)C)[C@H]1CCC2C3CC=C4C[C@@H](OC(=O)CCCC(=O)O)CC[C@]4(C)C3CC[C@@]21C (stereo partly drawn) [Compound 19, 20-Oxo-pregn-5-en-3β-yl hemiglutarate O-isopropyloxime]
Modulatory profile at NMDARs (GluN1/GluN2B receptors [2]): not identified as PAMs; also recorded: complex, concentration-dependent activity profile
inhibition at 3 µM (GluN1/GluN2B receptors [2]): 27%
PAM effect (degree of potentiation) (GluN1/GluN2B receptors [2]; at 10 µM compound): 81 ± 20%
PAM effect (degree of potentiation) (GluN1/GluN2B receptors [2]; at 30 µM compound): 169 ± 55%
PAMPA permeability Retention (mass retention) (in vitro [3]): 99%
Metabolic stability in rat liver microsomes (in vitro [4]): no detectable metabolism after 60 min
half-life at 10 µM (in vitro [4]): > 1 h

C=CCO/N=C(\C)[C@H]1CCC2C3CC=C4C[C@@H](OC(=O)CCCC(=O)O)CC[C@]4(C)C3CC[C@@]21C (stereo partly drawn) [Compound 20, 20-Oxo-pregn-5-en-3β-yl hemiglutarate O-(2-propenyl)oxime]
h ± SEM (apparent Hill coefficient) (GluN1/GluN2B receptors [2]): 2.0 ± 0.2
EC50 (GluN1/GluN2B receptors [2]): 12.6 ± 2.9 µM
Emax (GluN1/GluN2B receptors [2]): 317 ± 43%
PAMPA permeability Retention (mass retention) (in vitro [3]): 99%
Papp at 5 h, 100 µM (in vitro [3]): 7.24 ×10⁻⁶ cm/s
Metabolic stability in rat liver microsomes (in vitro [4]): no detectable metabolism after 60 min
half-life at 10 µM (in vitro [4]): > 1 h

C/C(=N\OCc1ccccc1)[C@H]1CCC2C3CC=C4C[C@@H](OC(=O)CCCC(=O)O)CC[C@]4(C)C3CC[C@@]21C (stereo partly drawn) [Compound 21, 20-Oxo-pregn-5-en-3β-yl hemiglutarate O-(phenylmethyl)oxime]
h ± SEM (apparent Hill coefficient) (GluN1/GluN2B receptors [2]): 1.7 ± 0.3
EC50 (GluN1/GluN2B receptors [2]): 11.3 ± 2 µM
Emax (GluN1/GluN2B receptors [2]): 403 ± 56%
PAMPA permeability Retention (mass retention) (in vitro [3]): 95%
Papp at 5 h, 100 µM (in vitro [3]): 1.82 ×10⁻⁶ cm/s
Metabolic stability in rat liver microsomes (in vitro [4]): no detectable metabolism after 60 min
half-life at 10 µM (in vitro [4]): > 1 h
